Literature values in PMC7394005, “Assessing the Selectivity of FXR, LXRs, CAR, and RORγ Pharmaceutical Ligands With Reporter Cell Lines” (Frontiers in Pharmacology, 2020).

How the values were obtained:
CAR/SRC-1 = system: CAR/SRC-1; set-up: method as in Maglich et al., 2003; conditions: ref Maglich et al., 2003; read-out: EC50 in the CAR/SRC-1 FRET assay; cited from earlier work
FXR = system: FXR; set-up: method as in Yu et al., 2014; conditions: ref Yu et al., 2014; read-out: IC50 in FXR cell-based antagonistic assays; cited from earlier work
LXRβ = conditions: luciferase reporter gene with LXR response elements in HEK293 cells; ref Peng et al., 2011; cited from earlier work
[1] = system: type 1 diabetes model mice; set-up: method as in Solt et al., 2015; conditions: ref Solt et al., 2015; cited from earlier work
RORγt = system: RORγt; set-up: method as in Rene et al., 2014; Chang et al., 2016; conditions: full-length RORγt transfected cells; ref Rene et al., 2014; Chang et al., 2016; read-out: EC50, induction of reporter gene expression; cited from earlier work
hPXR LBD = system: hPXR LBD; set-up: method as in Shukla et al., 2011; conditions: ref Shukla et al., 2011; cited from earlier work
hPXR = system: hPXR; set-up: method as in Lin et al., 2017; conditions: ref Lin et al., 2017; read-out: IC50 in the cell-based hPXR antagonistic assay; cited from earlier work

Clc1ccc(-c2nc3sccn3c2/C=N/OCc2ccc(Cl)c(Cl)c2)cc1 [CITCO]
EC50 (CAR/SRC-1): 49 nM

COc1cccc(Cn2cc(C(=O)Nc3ccc(C)c(S(=O)(=O)N4CCOCC4)c3)c(-c3ccc(C)cc3)n2)c1 [DY268]
IC50 (FXR): 468 nM

O=C(O)Cc1cccc(OCCCN(Cc2cccc(C(F)(F)F)c2Cl)CC(c2ccccc2)c2ccccc2)c1 [GW3965]
LXRβ agonistic potency (LXRβ): nanomolar

CC(=O)Nc1nc(C)c(S(=O)(=O)Nc2ccc(C(O)(C(F)(F)F)C(F)(F)F)cc2)s1 [SR1001]
Diabetes incidence and insulitis [1]: significantly reduced diabetes incidence and insulitis

O=C(Nc1ccc(C(O)(C(F)(F)F)C(F)(F)F)cc1)c1ccc(C(F)(F)F)cc1 [SR1078]
EC50 (RORγt): 800 nM

CCOP(=O)(OCC)C(=Cc1cc(C(C)(C)C)c(O)c(C(C)(C)C)c1)P(=O)(OCC)OCC [SR12813]
EC50 (hPXR LBD): 440 nM

SPA70
IC50 (hPXR): 510 nM
